Consider 7 compounds from US12421253B2 (Mirati Therapeutics, Inc., priority 2020, dated 2025).

Each structure is given as a SMILES string. pIC50: −log10 of the molar value.

One assay has as its target T1, KRas^WT (Homo sapiens, UniProt P01116).
T1 construct: […]; biotin (biotinylated); purchased Accelegan Inc
Description: KRas binding assay (TR-FRET displacement of Cy5 labelled tracer).

Another assay deals with T2, KRas^G12A (Homo sapiens, UniProt P01116, G12A).
T2 construct: […]; biotin (biotinylated); purchased Accelegan Inc
T2 sequence (P01116 1-169 isoform P01116-2 G12A): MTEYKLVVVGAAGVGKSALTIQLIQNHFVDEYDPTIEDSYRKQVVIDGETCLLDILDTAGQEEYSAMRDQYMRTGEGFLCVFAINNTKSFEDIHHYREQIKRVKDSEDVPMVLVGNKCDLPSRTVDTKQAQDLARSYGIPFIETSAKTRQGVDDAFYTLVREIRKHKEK
Described as above.

The next assay deals with T3, KRas^G12D (Homo sapiens, UniProt P01116, G12D).
T3 construct: […]; biotin (biotinylated); purchased Accelegan Inc
T3 sequence (P01116 1-169 isoform P01116-2 G12D): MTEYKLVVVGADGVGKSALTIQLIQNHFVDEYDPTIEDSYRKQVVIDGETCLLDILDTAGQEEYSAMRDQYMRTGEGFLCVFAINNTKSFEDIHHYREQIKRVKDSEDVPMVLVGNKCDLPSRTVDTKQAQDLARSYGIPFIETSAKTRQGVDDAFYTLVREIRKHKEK
The description is as above.

In a further assay the target is T4, KRas^G12R (Homo sapiens, UniProt P01116, G12R).
T4 construct: […]; biotin (biotinylated); purchased Accelegan Inc
T4 sequence (P01116 1-169 isoform P01116-2 G12R): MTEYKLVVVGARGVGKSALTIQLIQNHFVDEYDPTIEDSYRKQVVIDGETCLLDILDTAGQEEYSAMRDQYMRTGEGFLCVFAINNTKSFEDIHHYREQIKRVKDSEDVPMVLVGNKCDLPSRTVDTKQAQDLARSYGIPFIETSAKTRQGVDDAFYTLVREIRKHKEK
The assay is described as above.

The target in the next assay is T5, KRas^G12S (Homo sapiens, UniProt P01116, G12S).
T5 construct: […]; biotin (biotinylated); purchased Accelegan Inc
T5 sequence (P01116 1-169 isoform P01116-2 G12S): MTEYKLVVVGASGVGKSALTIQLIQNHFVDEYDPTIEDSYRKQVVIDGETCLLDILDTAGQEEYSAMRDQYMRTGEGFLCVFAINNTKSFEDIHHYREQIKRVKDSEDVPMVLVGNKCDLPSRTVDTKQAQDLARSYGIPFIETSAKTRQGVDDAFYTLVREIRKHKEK
Described as above.

The target in a further assay is T6, KRas^G12V (Homo sapiens, UniProt P01116, G12V).
T6 construct: […]; biotin (biotinylated); purchased Accelegan Inc
T6 sequence (P01116 1-169 isoform P01116-2 G12V): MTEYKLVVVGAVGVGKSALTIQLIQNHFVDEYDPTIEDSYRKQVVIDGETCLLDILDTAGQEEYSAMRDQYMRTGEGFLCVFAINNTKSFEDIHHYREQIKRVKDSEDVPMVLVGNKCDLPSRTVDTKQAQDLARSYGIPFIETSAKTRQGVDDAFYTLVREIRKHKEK
The description is as above.

For assay [1], the system named is AsPC-1 (G12D) cells, phospho-ERK. Description: Inhibition of KRas-mediated phosphorylation of ERK (phospho-ERK/GAPDH antibody detection, LI-COR). It is filed as cell-based. To be noted: Homo sapiens, ASPC1, 3 hours. Here is the method:
(§1) AsPC-1 (G12D, ATCC CRL-1682), A549 (G12S, ATCC CCL-185), HCT116 (G13D, ATCC CCL-247) cells were grown in DMEM medium supplemented with 10% fetal bovine serum and Penicillin/Streptomycin. NCI-H358 (G12C, ATCC CRL-5807), NCI-H460 (Q61H, ATCC HTB-117), NCI-H727 (G12V, ATCC CRL-5815), MKN1 (WTdep, JCRB JCRB0252), PSN-1 (G12R, ATCC CRM-CRL-3211) cells were grown in RPMI medium supplemented with 10% fetal bovine serum, 10 mM HEPES, 10 mM Sodium Pyruvate, and Penicillin/Streptomycin. Cells were plated in black well clear bottom tissue culture treated 96 well plates (Corning, 3904) at a density of 20,000 cells/well and allowed to attach for 12-14 hours. Diluted compounds were then added in a final concentration of 0.5% DMSO. After 3 hours, 50 μL of 4.0% formaldehyde was added and the plates incubated at room temperature for 20 minutes. The plates were then dumped and permeabilized with 150 μL of ice cold 100% methanol for 10 minutes. Non-specific antibody binding to the plates was blocked using 100 μL Odyssey blocking buffer (LI-COR Biosciences, 927-60010) for 1 hour at room temperature.
(§2) The amount of phospho-ERK was determined using an antibody specific for the phosphorylated form of ERK and compared to the amount of GAPDH. Primary antibodies used for the detection were added as follows: Phospho-ERK (Cell Signaling CS-9101) diluted 1:500 and GAPDH (Millipore MAB374) diluted 1:5000 in Odyssey blocking buffer+0.05% Tween 20. The plates were incubated overnight at 4 C. The plates were washed 3× with 150 uL PBS+0.1% Tween 20.
(§3) Secondary antibodies used to visualize primary antibodies were added as follows: Goat Anti-Rabbit-800 (LI-COR, 926-32211) and Goat Anti-Mouse-680 (LI-COR, 926-68070) diluted 1:800 both in Odyssey blocking buffer+0.05% Tween 20 and were incubated for 1 hour at room temperature. The plates were washed 3× with 150 uL PBS+[…]. Plates were imaged dry on a Li—COR Odyssey CLX plate reader.
(§4) The phospho-ERK (Thr202/Tyr204) signal was normalized to the GAPDH signal for each well and percent of DMSO control values were calculated. IC50 values were generated using a 4-parameter fit of the dose response curve.

Assay [2] relates to NCI-H460 (Q61H) cells, phospho-ERK. The assay is described as above. The format is cell-based. To be noted: Homo sapiens, 3 hours. Here is the method:
as §1, §2, §3, §4

Assay [3] has as its system NCI-H727 (G12V) cells, phospho-ERK. The assay is described as above. It is filed as cell-based. To be noted: Homo sapiens, 3 hours. Here is the method: as §1, §2, §3, §4
The next assay has as its system MKN1 cells, pERK. Description: Inhibition of KRas phosphorylation of ERK (Cisbio HTRF Advanced pERK assay). It is filed as cell-based. As to conditions: Homo sapiens, MKN-1, 3 h, read-out: Inhibition (HTRF IC50 nM) of KRas-mediated Phosphorylation of ERK, MKN1. In short, it runs like this: (§5)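 Cells seeded at 6,000/well in RPMI with 10% FBS, grown overnight at 37 °C, then exposed 3 h to 10-dose 3-fold compound series from 10 uM (0.8% DMSO final); 0.2 uM trametinib as minimum control. Lysates read for pERK by HTRF after 2 h antibody incubation at room temperature.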
(In TR-FRET formats the signal depends on donor and acceptor labels being close together.)

For a further assay, the system named is PSN1 cells, pERK. Described as above. It is filed as cell-based. As to conditions: Homo sapiens, PSN1, 3 h, read-out: Inhibition (HTRF IC50 nM) of KRas-mediated Phosphorylation of ERK, PSN1. In short, it runs like this: as §5
A further assay deals with KRas^G12C (Homo sapiens, UniProt P01116, G12C). Description: biochemical.
Sequence of KRas^G12C (P01116 1-169 isoform P01116-2 G12C): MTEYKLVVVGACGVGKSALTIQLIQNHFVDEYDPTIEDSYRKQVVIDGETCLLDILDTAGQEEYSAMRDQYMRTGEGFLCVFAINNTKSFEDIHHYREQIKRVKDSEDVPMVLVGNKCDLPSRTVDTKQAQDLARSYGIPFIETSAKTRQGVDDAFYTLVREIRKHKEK
In the next assay the target is KRas^G13D (Homo sapiens, UniProt P01116, G13D). As to the kind of experiment: biochemical.
Sequence of KRas^G13D (P01116 1-169 isoform P01116-2 G13D): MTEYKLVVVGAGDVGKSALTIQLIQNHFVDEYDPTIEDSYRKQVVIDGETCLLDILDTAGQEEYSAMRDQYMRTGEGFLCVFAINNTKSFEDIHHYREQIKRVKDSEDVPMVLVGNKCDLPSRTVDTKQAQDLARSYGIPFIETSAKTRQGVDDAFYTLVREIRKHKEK
The next assay deals with KRas^Q61H (Homo sapiens, UniProt P01116, Q61H). Description: biochemical.
Sequence of KRas^Q61H (P01116 1-169 isoform P01116-2 Q61H): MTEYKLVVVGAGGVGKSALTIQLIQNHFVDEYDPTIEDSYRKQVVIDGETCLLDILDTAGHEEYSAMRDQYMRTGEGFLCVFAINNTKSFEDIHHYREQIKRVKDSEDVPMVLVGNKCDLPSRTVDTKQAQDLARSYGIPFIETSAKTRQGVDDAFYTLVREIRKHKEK
The next assay has as its system A549 cells, pERK. Description: Inhibition of KRas phosphorylation of ERK (Cisbio HTRF Advanced pERK assay). The format is cell-based. As to conditions: Homo sapiens, 3 hrs, read-out: Inhibition (HTRF IC50 nM) of KRas-mediated Phosphorylation of ERK, A549. In short, it runs like this: as §5
The subject of the next assay is ASPC1 cells, pERK. The assay is described as above. The format is cell-based. To be noted: Homo sapiens, ASPC1, 3 h, AsPC-1 cells, read-out: Inhibition (HTRF IC50 nM) of KRas-mediated Phosphorylation of ERK, AsPC-1. A digest of the protocol:
as §5

In another assay the test system is H460 cells, pERK. The description is as above. It is filed as cell-based. To be noted: Homo sapiens, NCI-H460, 3 hrs, read-out: Inhibition (HTRF IC50 nM) of KRas-mediated Phosphorylation of ERK, H460. A digest of the protocol: as §5
The next assay relates to H727 cells, pERK. The description is as above. It is filed as cell-based. As to conditions: Homo sapiens, NCI-H727, 3 h, read-out: Inhibition (HTRF IC50 nM) of KRas-mediated Phosphorylation of ERK, H727. In short, it runs like this:
as §5

Another assay relates to HCT116 cells, pERK. The assay is described as above. The format is cell-based. As to conditions: Homo sapiens, HCT-116, 3 hrs, read-out: Inhibition (HTRF IC50 nM) of KRas-mediated Phosphorylation of ERK, HCT116. In short, it runs like this: as §5

T1 sequence (P01116 1-169 isoform P01116-2): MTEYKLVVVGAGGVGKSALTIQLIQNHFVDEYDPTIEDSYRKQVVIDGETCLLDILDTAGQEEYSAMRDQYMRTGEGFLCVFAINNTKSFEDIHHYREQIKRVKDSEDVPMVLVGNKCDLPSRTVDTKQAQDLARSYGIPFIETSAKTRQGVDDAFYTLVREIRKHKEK
Description for KRas^G12A: (§6) The ability of a compound to bind to KRas was measured using a TR-FRET displacement assay. […] After a 60-minute incubation at room temperature, the reaction was measured using a BMG LABTECH CLARIO star Plus via TR-FRET. […] The POC values were fit to a 4-parameter IC50 equation and the IC50 value reported.
Description for KRas^G12C: as §6
Description for KRas^G12D: as §6
Description for KRas^G12R: as §6
Description for KRas^G12S: as §6
Description for KRas^G12V: as §6
Description for KRas^G13D: as §6
Description for KRas^Q61H: as §6
Description for KRas^WT: as §6

As a reminder, the pIC50 is the negative decadic logarithm of the IC50, by convention in mol/L. A low value points to a high IC50. In general, IC50 refers to the concentration that gives 50% inhibition. Take `CCc1c(F)ccc2cc(O)cc(N3CCc4c(nc(OC[C@@]56CCCN5C[C@H](F)C6)nc4N4CCCC(c5ncn[nH]5)C4)C3)c12` (stereo partly drawn) [Example 19, 4-(4-(3-(1H-1,2,4-triazol-5-yl)piperidin-1-yl)-2-(((2R,7aS)-2-fluorotetrahydro-1H-pyrrolizin-7a(5H)-yl)methoxy)-5,8-dihydropyrido[3,4-d]pyrimidin-7(6H)-yl)-5-ethyl-6-fluoronaphthalen-2-ol]: the pIC50 at KRas^WT was 8.10; on KRas^G12A, 8.40; at KRas^G12D, 7.59; on KRas^G12R, 8.40; on KRas^G12S, 8.05; at KRas^G12V, 8.22. The pIC50 on KRas^G12C was 8.30; on KRas^G13D it was 7.96; against KRas^Q61H it was 8.05. Further, the half-inhibitory concentration (IC50) in assay [1] is 2680 nM; in assay [2], 1290 nM; in assay [3], 2930 nM; with MKN1 cells, pERK, 389 nM; with PSN1 cells, pERK, at least 10000 nM.
With `O=C1NC(=O)C2(CCCN(c3nc(OC[C@@]45CCCN4C[C@H](F)C5)nc4c3CCN(c3cc(O)cc5ccc(F)c(Br)c35)C4)C2)N1` (stereo partly drawn) [Example 217, 7-(7-(8-bromo-7-fluoro-3-hydroxynaphthalen-1-yl)-2-(((2R,7aS)-2-fluorohexahydro-1H-pyrrolizin-7a-yl)methoxy)-5,6,7,8-tetrahydropyrido[3,4-d]pyrimidin-4-yl)-1,3,7-triazaspiro[4.5]decane-2,4-dione], the pIC50 at KRas^G12D, on KRas^G12R and on KRas^G12V was at least 8.70 in each case. Further, the IC50 in the assay with A549 cells, pERK came to 160 nM; in the assay with ASPC1 cells, pERK it was 234 nM; in the assay with H460 cells, pERK it was 132 nM; with H727 cells, pERK, 390 nM; in the assay with HCT116 cells, pERK, 227 nM; with MKN1 cells, pERK, 21 nM. Also, the IC50 in the assay on PSN1 cells, pERK was determined as 269 nM.
On to `CCc1c(F)ccc2cc(O)cc(N3CCc4c(nc(OC[C@@]56CCCN5C[C@H](F)C6)nc4NCc4c[nH]c5ncccc45)C3)c12` [Example 23, 4-(4-(((1H-pyrrolo[2,3-b]pyridin-3-yl)methyl)amino)-2-(((2R,7aS)-2-fluorohexahydro-1H-pyrrolizin-7a-yl)methoxy)-5,6-dihydropyrido[3,4-d]pyrimidin-7(8H)-yl)-5-ethyl-6-fluoronaphthalen-2-ol], for which the negative-log IC50 (pIC50) is 7.44 at KRas^WT; 8.05 on KRas^G12A; 7.16 at KRas^G12D; 8.40 at KRas^G12R; 7.92 at KRas^G12S; 8.30 on KRas^G12V. The pIC50 against KRas^G12C is 8.15; against KRas^G13D it was 7.38; on KRas^Q61H it was 7.42. Also, the IC50 in assay [1] was 3850 nM; in assay [2], 1770 nM; in [3], 2420 nM; with MKN1 cells, pERK, 53 nM; with PSN1 cells, pERK it was at least 10000 nM.
As to `CCc1c(F)ccc2cc(O)cc(N3CCc4c(nc(OC[C@@]56CCCN5C[C@H](F)C6)nc4N4CCOCC(O)C4)C3)c12` (stereo partly drawn) [Example 29, 4-(7-(8-ethyl-7-fluoro-3-hydroxynaphthalen-1-yl)-2-(((2R,7aS)-2-fluorohexahydro-1H-pyrrolizin-7a-yl)methoxy)-5,6,7,8-tetrahydropyrido[3,4-d]pyrimidin-4-yl)-1,4-oxazepan-6-ol], the negative logarithm of the IC50 (pIC50) on KRas^G12D, at KRas^G12R and on KRas^G12V was at least 8.70 each time. The 50% inhibitory concentration (IC50) came out at 509 nM in [1]; 285 nM in assay [2]; 542 nM in [3]; 318 nM in the assay with ASPC1 cells, pERK; 906 nM with H727 cells, pERK; 1310 nM in the assay on HCT116 cells, pERK. Further, the IC50 stood at 20 nM in the assay with MKN1 cells, pERK and 5810 nM in the assay with PSN1 cells, pERK.
As to `CCc1c(F)ccc2cc(O)cc(N3CCc4c(nc(OC[C@@]56CCCN5C[C@H](F)C6)nc4N4CCCCCC(S(C)(=O)=O)C4)C3)c12` (stereo partly drawn) [Example 36, 5-ethyl-6-fluoro-4-(2-(((2R,7aS)-2-fluorotetrahydro-1H-pyrrolizin-7a(5H)-yl)methoxy)-4-(3-(methylsulfonyl)azocan-1-yl)-5,8-dihydropyrido[3,4-d]pyrimidin-7(6H)-yl)naphthalen-2-ol], the negative-log IC50 (pIC50) at KRas^G12D was 8.30; on KRas^G12R it was 8.30; at KRas^G12V, at least 8.70. Moreover, the IC50 is 1760 nM in assay [1]; 731 nM in [2]; 1730 nM in assay [3]; 37 nM in the assay on MKN1 cells, pERK; at least 10000 nM with PSN1 cells, pERK.
In the case of `CCc1c(F)ccc2cc(O)cc(N3CCc4c(nc(OC[C@@]56CCCN5C[C@H](F)C6)nc4N4CCOCC(n5cccn5)C4)C3)c12` (stereo partly drawn) [Example 25, 4-(4-(6-(1H-pyrazol-1-yl)-1,4-oxazepan-4-yl)-2-(((2R,7aS)-2-fluorohexahydro-1H-pyrrolizin-7a-yl)methoxy)-5,6-dihydropyrido[3,4-d]pyrimidin-7(8H)-yl)-5-ethyl-6-fluoronaphthalen-2-ol], the figures for the pIC50 at KRas^G12D, at KRas^G12R and at KRas^G12V were 8.52, 8.40 and 8.52, respectively. Further, the IC50 in assay [1] was 448 nM; in assay [2], 171 nM; in [3] it was 540 nM; in the assay on ASPC1 cells, pERK, 180 nM; in the assay on H727 cells, pERK it was 767 nM; in the assay with HCT116 cells, pERK, 521 nM. Moreover, the IC50 with MKN1 cells, pERK is 51 nM; in the assay on PSN1 cells, pERK, 8320 nM.
Consider `CCc1c(F)ccc2cc(O)cc(N3CCc4c(nc(OC[C@@]56CCCN5C[C@H](F)C6)nc4N4CCCC(O)(C(F)F)C4)C3)c12` (stereo partly drawn) [Example 32, 3-(difluoromethyl)-1-(7-(8-ethyl-7-fluoro-3-hydroxynaphthalen-1-yl)-2-(((2R,7aS)-2-fluorohexahydro-1H-pyrrolizin-7a-yl)methoxy)-5,6,7,8-tetrahydropyrido[3,4-d]pyrimidin-4-yl)piperidin-3-ol], for which the negative-log IC50 (pIC50) is at least 8.70 at KRas^G12D, 8.52 on KRas^G12R and at least 8.70 on KRas^G12V. For the same compound, the IC50 in assay [1] was 624 nM; in [2] it was 381 nM; in [3] it was 1090 nM; with MKN1 cells, pERK it was 31 nM; in the assay on PSN1 cells, pERK, 1540 nM.
